Source: PubChem BioAssay (NCI)
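Results reflect a 48-hour exposure of cells in 96-well plates to compound at five concentrations. TGI: total growth inhibition.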

How the values were obtained:
Assay in all cases: NCI-60 cell line screen, 48 h
HCT-116 colon = tested on: HCT-116 colon
COLO 205 colon = tested on: COLO 205 colon
MALME-3M melanoma = tested on: MALME-3M melanoma
UACC-257 melanoma = tested on: UACC-257 melanoma
NCI-H23 lung = tested on: NCI-H23 lung
NCI-H460 lung = tested on: NCI-H460 lung
SF-539 CNS = tested on: SF-539 CNS
PC-3 prostate = tested on: PC-3 prostate
NCI-H522 lung = tested on: NCI-H522 lung
KM12 colon = tested on: KM12 colon
RXF 393 renal = tested on: RXF 393 renal
SF-295 CNS = tested on: SF-295 CNS
TK-10 renal = tested on: TK-10 renal
UO-31 renal = tested on: UO-31 renal
NCI-H226 lung = tested on: NCI-H226 lung
OVCAR-5 ovarian = tested on: OVCAR-5 ovarian
A549 NSCLC = tested on: A549 NSCLC
SF-268 CNS = tested on: SF-268 CNS
ACHN renal = tested on: ACHN renal
HT29 colon = tested on: HT29 colon

Structure (SMILES)	TGI (HCT-116 colon)	TGI (COLO 205 colon)	TGI (MALME-3M melanoma)	TGI (UACC-257 melanoma)	TGI (NCI-H23 lung)	TGI (NCI-H460 lung)	TGI (SF-539 CNS)	TGI (PC-3 prostate)	TGI (NCI-H522 lung)	TGI (KM12 colon)	TGI (RXF 393 renal)	TGI (SF-295 CNS)	TGI (TK-10 renal)	TGI (UO-31 renal)	TGI (NCI-H226 lung)	TGI (OVCAR-5 ovarian)	TGI (A549 NSCLC)	TGI (SF-268 CNS)	TGI (ACHN renal)	TGI (HT29 colon)
Cn1c(=O)cc(N=Nc2ccc(Cl)c(Cl)c2)[nH]c1=O	59.6 µM	60.5 µM	32.6 µM	65.9 µM	86.5 µM	> 100 µM	> 100 µM	56.1 µM	49.4 µM	> 100 µM	63.6 µM	> 100 µM	47.9 µM	> 100 µM	> 100 µM	> 100 µM	> 100 µM	51.1 µM	47.4 µM	38.6 µM
CNCCCNC1(c2cc3ccccc3s2)CCCCC1	14.9 µM	3.8 µM	4.57 µM	3.35 µM	30.6 µM	9.09 µM	7.37 µM	21.5 µM	19.1 µM	16.3 µM	12.2 µM	27.5 µM	19.4 µM	7.36 µM	36.6 µM	27.5 µM	20.4 µM	25.3 µM	26.9 µM	7.94 µM
CC(C)(C)OC(=O)CC(NC(=O)OC(C)(C)C)C(=O)NC(C(=O)O)C(O)c1ccccc1 (stereo not given)	> 100 µM	> 100 µM	> 100 µM	> 100 µM	> 100 µM	> 100 µM	> 100 µM	> 100 µM	> 100 µM	> 100 µM	> 100 µM	> 100 µM	> 100 µM	> 100 µM	> 100 µM	> 100 µM	> 100 µM	> 100 µM	> 100 µM	> 100 µM
